# Assay results from patent US12139499B2, “Heteroaryl compounds for treating Huntington's disease” (PTC THERAPEUTICS, INC., priority 2018, dated 2024).
# Tested on: Endogenous Huntingtin Protein
# Assay: Endogenous Huntingtin Protein Assay (ELISA-based MSD electrochemiluminescence)
# Assay type: cell-based
# Conditions: Table 1
# Method: Compounds of Formula (I) or Formula (II) were tested using the Meso Scale Discovery (MSD) Assay provided in International Application No. PCT/US2016/066042, filed on Dec. 11, 2016 and claiming priority to U.S. Provisional Application 62/265,652 filed on Dec. 10, 2015, the entire contents of which are incorporated herein by reference.
# The Endogenous Huntingtin Protein assay used in Example 1 was developed using the ELISA-based MSD electrochemiluminescence assay platform.
# Endogenous Huntingtin Protein Assay
# Meso Scale Discovery (MSD) 96-well or 384-well plates were coated overnight at 4° C. with MW1 (expanded polyglutamine) or MAB2166 monoclonal antibody (for capture) at a concentration of 1 μg/mL in PBS (30 μL per well). Plates were then washed three times with 300 μL wash buffer (0.05% Tween-20 in PBS) and blocked (100 μL blocking buffer; 5% BSA in PBS) for 4-5 hours at room temperature with rotational shaking and then washed three times with wash buffer.
# Samples (25 μL) were transferred to the antibody-coated MSD plate and incubated overnight at 4° C. After removal of the lysates, the plate was washed three times with wash buffer, and 25 μL of #5656S (Cell signaling; rabbit monoclonal) secondary antibody (diluted to 0.25 μg/mL in 0.05% Tween-20 in blocking buffer) was added to each well and incubated with shaking for 1 Hour at room temperature. Following incubation with the secondary antibody, the wells were rinsed with wash buffer after which 25 μL of goat anti-rabbit SULFO TAG secondary detection antibody (required aspect of the MSD system) (diluted to 0.25 μg/mL in 0.05% Tween-20 in blocking buffer) was added to each well and incubated with shaking for 1 hour at room temperature. After rinsing three times with wash buffer, 150 μL of read buffer T with surfactant (MSD) were added to each empty well, and the plate was imaged on a SI 6000 imager (MSD) according to manufacturers' instructions provided for 96- or 384-well plates.
row,Compound,IC50
1,"Cc1nc2ccc(-c3cc(F)c4nc(C5CCNCC5)sc4c3)cc2o1 [Compound 70, 6-[4-fluoro-2-(piperidin-4-yl)-1,3-benzothiazol-6-yl]-2-methyl-1,3-benzoxazole]",≤ 100 nM
2,"Cc1cn2cc(-c3cc(F)c4nc(C5=CCNCC5)sc4c3)cc(C)c2n1 [Compound 71, 6-(2,8-dimethylimidazo[1,2-a]pyridin-6-yl)-4-fluoro-2-(1,2,3,6-tetrahydropyridin-4-yl)-1,3-benzothiazole]",100 to 500 nM
3,"Cn1cc2cc(-c3cc(F)c4nc(C5=CCNCC5)sc4c3)ccc2n1 [Compound 72, 4-fluoro-6-(2-methyl-2H-indazol-5-yl)-2-(1,2,3,6-tetrahydropyridin-4-yl)-1,3-benzothiazole]",100 to 500 nM
4,"Cn1cc2cc(-c3cc(F)c4nc(C5CCNCC5)sc4c3)ccc2n1 [Compound 73, 4-fluoro-6-(2-methyl-2H-indazol-5-yl)-2-(piperidin-4-yl)-1,3-benzothiazole]",≤ 100 nM
5,"Cn1cc2cc(-c3cc4sc(C5CCNCC5)nc4cn3)cc(C#N)c2n1 [Compound 74, 2-methyl-5-[2-(piperidin-4-yl)[1,3]thiazolo[4,5-c]pyridin-6-yl]-2H-indazole-7-carbonitrile]",≤ 100 nM
6,"CCc1cc(-c2cc3sc(C4CCNCC4)nc3cn2)cc2cn(C)nc12 [Compound 75, 6-(7-ethyl-2-methyl-2H-indazol-5-yl)-2-(piperidin-4-yl)[1,3]thiazolo[4,5-c]pyridine]",100 to 500 nM
7,"Cn1cc2cc(-c3cc4sc(C5CCNCC5)nc4cn3)cc(F)c2n1 [Compound 76, 6-(7-fluoro-2-methyl-2H-indazol-5-yl)-2-(piperidin-4-yl)[1,3]thiazolo[4,5-c]pyridine]",100 to 500 nM
8,"Cc1cn2cc(-c3cc4sc(C5CCNCC5)nc4cn3)ccc2n1 [Compound 77, 6-(2-methylimidazo[1,2-a]pyridin-6-yl)-2-(piperidin-4-yl)[1,3]thiazolo[4,5-c]pyridine]",100 to 500 nM
9,"Fc1cc(-c2ccc3[nH]ncc3n2)cc2sc(C3CCNCC3)nc12 [Compound 78, 5-[4-fluoro-2-(piperidin-4-yl)-1,3-benzothiazol-6-yl]-1H-pyrazolo[4,3-b]pyridine]",500 to 1000 nM
10,"Cn1cc2nc(-c3cc(F)c4nc(C5CCNCC5)sc4c3)ccc2n1 [Compound 79, 5-[4-fluoro-2-(piperidin-4-yl)-1,3-benzothiazol-6-yl]-2-methyl-2H-pyrazolo[4,3-b]pyridine]",≤ 100 nM
11,"CN(c1nc2ccc(-c3cc(C4CC4)c4nn(C)cc4c3)cc2s1)C1CC(C)(C)NC(C)(C)C1 [Compound 80, 6-(7-cyclopropyl-2-methyl-2H-indazol-5-yl)-N-methyl-N-(2,2,6,6-tetramethylpiperidin-4-yl)-1,3-benzothiazol-2-amine]",1000 to 3000 nM
12,"CC1CC(N(C)c2nc3ccc(-c4ccc5nn(C)cc5c4)cc3s2)CCN1 (stereo not shown) [Compound 81, N-methyl-6-(2-methyl-2H-indazol-5-yl)-N-(2-methylpiperidin-4-yl)-1,3-benzothiazol-2-amine]",100 to 500 nM
13,"Cc1cn2cc(-c3ccc4nc(C5CCNCC5)sc4c3)ccc2n1 [Compound 82, 6-(2-methylimidazo[1,2-a]pyridin-6-yl)-2-(piperidin-4-yl)-1,3-benzothiazole]",100 to 500 nM
14,"Cn1cc2cc(-c3ccc4nc(C5CCNCC5)sc4c3)cc(F)c2n1 [Compound 83, 6-(7-fluoro-2-methyl-2H-indazol-5-yl)-2-(piperidin-4-yl)-1,3-benzothiazole]",≤ 100 nM
15,"Cn1cc2cc(-c3ccc4nc(C5CCNCC5)sc4c3)cc(C#N)c2n1 [Compound 84, 2-methyl-5-[2-(piperidin-4-yl)-1,3-benzothiazol-6-yl]-2H-indazole-7-carbonitrile]",≤ 100 nM
16,"CCc1cc(-c2ccc3nc(C4CCNCC4)sc3c2)cc2cn(C)nc12 [Compound 85, 6-(7-ethyl-2-methyl-2H-indazol-5-yl)-2-(piperidin-4-yl)-1,3-benzothiazole]",100 to 500 nM
